Reference: ChEMBL document CHEMBL1201862, “PubChem BioAssay data set” (2004)
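How tested: cells in 96-well plates exposed to compound for 48 hours at five concentrations. The concentration for 50% growth inhibition is given as GI50.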 Calls of active or inactive are those of the source. No stated cut-off is given here; in the data, active = GI50 up to about 1.1 µM and inactive = higher.

Key:
Experiment in all cases: NCI-60 cell line screen, 48 h
[1] = tested on: KM-20L2
[2] = tested on: M19-MEL
[3] = tested on: RXF 631
[4] = tested on: SF-295
[5] = tested on: COLO 205
[6] = tested on: OVCAR-8
[7] = tested on: SK-MEL-5
[8] = tested on: LXFL 529
[9] = tested on: OVCAR-4
[10] = tested on: SF-539
[11] = tested on: ACHN
[12] = tested on: HCT-116
[13] = tested on: SNB-19
[14] = tested on: U-251
[15] = tested on: DMS-114
[16] = tested on: HOP-18
[17] = tested on: HCC 2998
[18] = tested on: IGROV-1
[19] = tested on: DMS-273
[20] = tested on: M14
[21] = tested on: HCT-15
[22] = tested on: NCI-H23
[23] = tested on: K562
[24] = tested on: DLD-1
[25] = tested on: UACC-257
[26] = tested on: SNB-75
[27] = tested on: SK-OV-3
[28] = tested on: HT-29
[29] = tested on: SK-MEL-28
[30] = tested on: A498
[31] = tested on: SN12C
[32] = tested on: HOP-92
[33] = tested on: HL-60
[34] = tested on: MOLT-4
[35] = tested on: XF498
[36] = tested on: UACC-62
[37] = tested on: CCRF-CEM
[38] = tested on: TK-10
[39] = tested on: EKVX
[40] = tested on: SNB-78
[41] = tested on: RPMI-8226
[42] = tested on: HOP-62
[43] = tested on: RXF 393
[44] = tested on: LOX IMVI
[45] = tested on: 786-0
[46] = tested on: CAKI-1
[47] = tested on: OVCAR-3
[48] = tested on: NCI-H460
[49] = tested on: SW-620
[50] = tested on: A549
[51] = tested on: SR
[52] = tested on: NCI-H226
[53] = tested on: SF-268
[54] = tested on: UO-31
[55] = tested on: Malme-3M
[56] = tested on: NCI-H522
[57] = tested on: KM12
[58] = tested on: OVCAR-5

COc1ccc2c3c(c(C(=O)c4ccccc4)oc13)CCC2
GI50 [1]: > 100 µM (inactive) | GI50 [2]: > 100 µM (inactive) | GI50 [3]: > 100 µM (inactive) | GI50 [4]: > 100 µM (inactive) | GI50 [5]: > 100 µM (inactive) | GI50 [6]: > 100 µM (inactive) | GI50 [7]: > 100 µM (inactive) | GI50 [8]: > 100 µM (inactive) | GI50 [9]: > 100 µM (inactive) | GI50 [10]: > 100 µM (inactive) | GI50 [11]: > 100 µM (inactive) | GI50 [12]: > 100 µM (inactive) | GI50 [13]: > 100 µM (inactive) | GI50 [14]: > 100 µM (inactive) | GI50 [15]: > 100 µM (inactive) | GI50 [16]: > 100 µM (inactive) | GI50 [17]: > 100 µM (inactive) | GI50 [18]: > 100 µM (inactive) | GI50 [19]: > 100 µM (inactive) | GI50 [20]: > 100 µM (inactive) | GI50 [21]: > 100 µM | GI50 [22]: 20.8 µM (inactive) | GI50 [23]: > 100 µM (inactive) | GI50 [24]: > 100 µM (inactive) | GI50 [25]: > 100 µM (inactive) | GI50 [26]: 81.5 µM (inactive) | GI50 [27]: > 100 µM (inactive) | GI50 [28]: 79.4 µM (inactive) | GI50 [29]: > 100 µM (inactive) | GI50 [30]: > 100 µM (inactive) | GI50 [31]: > 100 µM (inactive) | GI50 [32]: < 0.01 µM (active) | GI50 [33]: > 100 µM (inactive) | GI50 [34]: > 100 µM (inactive) | GI50 [35]: > 100 µM (inactive) | GI50 [36]: > 100 µM (inactive) | GI50 [37]: > 100 µM (inactive) | GI50 [38]: > 100 µM (inactive) | GI50 [39]: > 100 µM (inactive) | GI50 [40]: > 100 µM (inactive) | GI50 [41]: > 100 µM (inactive) | GI50 [42]: > 100 µM (inactive) | GI50 [43]: 17.5 µM (inactive) | GI50 [44]: > 100 µM (inactive) | GI50 [45]: > 100 µM (inactive) | GI50 [46]: > 100 µM (inactive) | GI50 [47]: > 100 µM (inactive) | GI50 [48]: > 100 µM (inactive) | GI50 [49]: > 100 µM (inactive) | GI50 [50]: > 100 µM (inactive)

C/C(CC(=O)N(C(C)C)C(C)C)=N\NC(=O)c1ccncc1
GI50 [1]: > 100 µM (inactive) | GI50 [2]: > 100 µM (inactive) | GI50 [3]: > 100 µM (inactive) | GI50 [4]: > 100 µM (inactive) | GI50 [5]: > 100 µM (inactive) | GI50 [6]: > 100 µM (inactive) | GI50 [7]: > 100 µM (inactive) | GI50 [8]: > 100 µM (inactive) | GI50 [9]: > 100 µM (inactive) | GI50 [10]: > 100 µM (inactive) | GI50 [51]: > 100 µM (inactive) | GI50 [11]: > 100 µM (inactive) | GI50 [12]: > 100 µM (inactive) | GI50 [52]: > 100 µM (inactive) | GI50 [53]: > 100 µM (inactive) | GI50 [13]: > 100 µM (inactive) | GI50 [14]: > 100 µM (inactive) | GI50 [16]: > 100 µM (inactive) | GI50 [17]: > 100 µM (inactive) | GI50 [18]: > 100 µM (inactive) | GI50 [19]: > 100 µM (inactive) | GI50 [20]: > 100 µM (inactive) | GI50 [21]: > 100 µM | GI50 [54]: > 100 µM (inactive) | GI50 [22]: > 100 µM (inactive) | GI50 [55]: > 100 µM (inactive) | GI50 [23]: > 100 µM (inactive) | GI50 [24]: > 100 µM (inactive) | GI50 [25]: > 100 µM (inactive) | GI50 [26]: 95.7 µM (inactive) | GI50 [27]: > 100 µM (inactive) | GI50 [28]: > 100 µM (inactive) | GI50 [29]: > 100 µM (inactive) | GI50 [30]: > 100 µM (inactive) | GI50 [31]: > 100 µM (inactive) | GI50 [32]: > 100 µM (inactive) | GI50 [33]: > 100 µM (inactive) | GI50 [34]: > 100 µM (inactive) | GI50 [35]: > 100 µM (inactive) | GI50 [36]: > 100 µM (inactive) | GI50 [37]: > 100 µM (inactive) | GI50 [39]: > 100 µM (inactive) | GI50 [40]: > 100 µM (inactive) | GI50 [41]: > 100 µM (inactive) | GI50 [43]: > 100 µM (inactive) | GI50 [44]: > 100 µM (inactive) | GI50 [45]: > 100 µM (inactive) | GI50 [47]: > 100 µM (inactive) | GI50 [56]: > 100 µM (inactive) | GI50 [49]: > 100 µM (inactive) | GI50 [50]: > 100 µM (inactive)

Cc1ccccc1C(=O)N1CCN(C(=O)c2ccccc2C)CC1
GI50 [1]: > 100 µM (inactive) | GI50 [2]: > 100 µM (inactive) | GI50 [3]: > 100 µM (inactive) | GI50 [4]: > 100 µM (inactive) | GI50 [6]: > 100 µM (inactive) | GI50 [7]: > 100 µM (inactive) | GI50 [57]: > 100 µM (inactive) | GI50 [58]: > 100 µM (inactive) | GI50 [8]: > 100 µM (inactive) | GI50 [9]: > 100 µM (inactive) | GI50 [10]: > 100 µM (inactive) | GI50 [51]: > 100 µM (inactive) | GI50 [11]: > 100 µM (inactive) | GI50 [12]: > 100 µM (inactive) | GI50 [53]: > 100 µM (inactive) | GI50 [13]: > 100 µM (inactive) | GI50 [14]: > 100 µM (inactive) | GI50 [16]: > 100 µM (inactive) | GI50 [17]: > 100 µM (inactive) | GI50 [18]: > 100 µM (inactive) | GI50 [19]: > 100 µM (inactive) | GI50 [20]: > 100 µM (inactive) | GI50 [21]: > 100 µM | GI50 [54]: > 100 µM (inactive) | GI50 [22]: > 100 µM (inactive) | GI50 [23]: > 100 µM (inactive) | GI50 [24]: > 100 µM (inactive) | GI50 [25]: > 100 µM (inactive) | GI50 [26]: > 100 µM (inactive) | GI50 [27]: > 100 µM (inactive) | GI50 [28]: > 100 µM (inactive) | GI50 [29]: > 100 µM (inactive) | GI50 [30]: > 100 µM (inactive) | GI50 [31]: > 100 µM (inactive) | GI50 [32]: > 100 µM (inactive) | GI50 [33]: > 100 µM (inactive) | GI50 [34]: > 100 µM (inactive) | GI50 [35]: > 100 µM (inactive) | GI50 [36]: > 100 µM (inactive) | GI50 [37]: > 100 µM (inactive) | GI50 [38]: > 100 µM (inactive) | GI50 [39]: > 100 µM (inactive) | GI50 [40]: > 100 µM (inactive) | GI50 [41]: > 100 µM (inactive) | GI50 [42]: > 100 µM (inactive) | GI50 [43]: > 100 µM (inactive) | GI50 [44]: > 100 µM (inactive) | GI50 [45]: > 100 µM (inactive) | GI50 [46]: > 100 µM (inactive) | GI50 [47]: > 100 µM (inactive) | GI50 [48]: > 100 µM (inactive) | GI50 [56]: > 100 µM (inactive) | GI50 [49]: > 100 µM (inactive) | GI50 [50]: > 100 µM (inactive)
